In patent US7507813B2, “Amorphous cefuroxime axetil and preparation process therefore” (Nanomaterials Technology Pte Ltd., priority 2004, dated 2009):

Assay: Particle size of the cefuroxime axetil particles (SEM images)
Type: physicochemical
Details: amorphous particles from antisolvent precipitation

Row | SMILES | average particle size
1 | CO/N=C(\C(=O)N[C@@H]1C(=O)N2C(C(=O)OC(C)OC(C)=O)=C(COC(N)=O)CS[C@H]12)c1ccco1 (some centres unmarked) [Example 5, cefuroxime axetil] | about 200 nm
2 | CO/N=C(\C(=O)N[C@@H]1C(=O)N2C(C(=O)OC(C)OC(C)=O)=C(COC(N)=O)CS[C@H]12)c1ccco1 (some centres unmarked) [Example 9, cefuroxime axetil] | about 500 nm
3 | CO/N=C(\C(=O)N[C@@H]1C(=O)N2C(C(=O)OC(C)OC(C)=O)=C(COC(N)=O)CS[C@H]12)c1ccco1 (some centres unmarked) [Example 4, cefuroxime axetil] | about 400 nm
4 | CO/N=C(\C(=O)N[C@@H]1C(=O)N2C(C(=O)OC(C)OC(C)=O)=C(COC(N)=O)CS[C@H]12)c1ccco1 (some centres unmarked) [Example 10, cefuroxime axetil] | about 600 nm
5 | CO/N=C(\C(=O)N[C@@H]1C(=O)N2C(C(=O)OC(C)OC(C)=O)=C(COC(N)=O)CS[C@H]12)c1ccco1 (some centres unmarked) [Example 8, cefuroxime axetil] | about 2 μm
6 | CO/N=C(\C(=O)N[C@@H]1C(=O)N2C(C(=O)OC(C)OC(C)=O)=C(COC(N)=O)CS[C@H]12)c1ccco1 (some centres unmarked) [Example 6, cefuroxime axetil] | about 1 μm
7 | CO/N=C(\C(=O)N[C@@H]1C(=O)N2C(C(=O)OC(C)OC(C)=O)=C(COC(N)=O)CS[C@H]12)c1ccco1 (some centres unmarked) [Example 1, cefuroxime axetil] | about 500 nm

Next, values leading:

Row | average particle size | SMILES
8 | about 1 μm | CO/N=C(\C(=O)N[C@@H]1C(=O)N2C(C(=O)OC(C)OC(C)=O)=C(COC(N)=O)CS[C@H]12)c1ccco1 (some centres unmarked) [Example 11, cefuroxime axetil]
9 | about 1 μm | CO/N=C(\C(=O)N[C@@H]1C(=O)N2C(C(=O)OC(C)OC(C)=O)=C(COC(N)=O)CS[C@H]12)c1ccco1 (some centres unmarked) [Example 3, cefuroxime axetil]
10 | about 600 nm | CO/N=C(\C(=O)N[C@@H]1C(=O)N2C(C(=O)OC(C)OC(C)=O)=C(COC(N)=O)CS[C@H]12)c1ccco1 (some centres unmarked) [Example 2, cefuroxime axetil]
11 | about 500 nm | CO/N=C(\C(=O)N[C@@H]1C(=O)N2C(C(=O)OC(C)OC(C)=O)=C(COC(N)=O)CS[C@H]12)c1ccco1 (some centres unmarked) [Example 7, cefuroxime axetil]
